From patent publication US6667337B2, “Combination therapy for cancer” (Cancer Research Technology Limited, priority 2000, dated 2003)

Experiments:
[1] = system: Murine mammary carcinoma MDAH-MCa-4 tumours; assay: Antitumour activity (tumour growth delay, cures) against MDAH-MCa-4 tumour; format: in vivo, female C3H/HeN mice; conditions: for Growth delay (days) Median: interim analysis
Procedure: (§1) Murine mammary carcinoma MDAH—MCa-4 tumours were grown in female C3H/HeN mice from stocks stored in liquid nitrogen at the sixth transplant generation, and were passaged and used for experiments at the eighth transplant generation. Tumours for experiments were grown by inoculating 20 μl of cell suspension (5 mg packed cells) intramuscularly in the right gastrocenmius muscle. Animals were randomised to treatment groups, and treated with drugs when the dliameter of the tumour-bearing leg reached 10-11 mm (ca 0.6 g tumour), approximately 18 days after inoculation. […] Both compounds were administered essentially at the same time (within 1 min). Host toxicity was assessed by determination of lethality, and by measurement of body weight 4-5 days after drug treatment. The diameter of the tumour-bearing leg was measured three times weekly until values exceeded 13 mm (ca 1.4 g tumour) at which time the animals were terminated. The growth curve for each individual tumour was plotted as in FIG. 1, and the time-to-endpoint (TTE, time from treatment to endpoint) was determined for each mouse. The median and mean TTE was determined for each treatment group. The mean tumour growth delay for each group was calculated as the difference between mean TTE for treated and control groups. The statistical significance of the antitumour effects was tested using ANOVA followed by Dunnett's test to determine p values for the significance of differences between individual groups.

[2] = Host toxicity (lethality, body weight 4-5 days after drug treatment); format: in vivo, female C3H/HeN mice
Procedure: as §1

[3] = DMXAA 80 μmol/kg alone, group 120/B
[4] = paclitaxel 23.7 μmol/kg alone, group 120/C

SMILES	Growth delay (days) Median [1, 3]	% Body weight change (d4-5) Mean [2, 3]	Growth delay (days) Median [1, 4]	antitumour activity (in words) ([1]; paclitaxel alone, up to 42 μmol/kg)	% Body weight change (d4-5) Mean [2, 4]	Number of mice Deaths ([2]; paclitaxel 23.7 μmol/kg alone, group 120/C, 7 mice treated, interim analysis)	host toxicity (in words) ([2]; paclitaxel alone, 42 μmol/kg)
Cc1ccc2c(=O)c3cccc(CC(=O)O)c3oc2c1C [DMXAA, 5,6-dimethylxanthenone-4-acetic acid]	17.9 days	−6.0%	–	–	–	–	–
CC(=O)O[C@H]1C(=O)[C@@]2(C)[C@H]([C@H](OC(=O)c3ccccc3)[C@]3(O)C[C@H](OC(=O)[C@H](O)[C@@H](NC(=O)c4ccccc4)c4ccccc4)C(C)=C1C3(C)C)[C@]1(OC(C)=O)CO[C@@H]1C[C@@H]2O [Paclitaxel, paclitaxel]	–	–	3.5 days	little antitumour activity	−0.1%	1	not demonstrably toxic
